Measured values from patent publication US3997403A, “Antibiotic G-418 and the production thereof” (Schering Corporation, priority 1975, dated 1976).
Counter-ions that a name gives are not always drawn.

Tests used:
E. Histolytica = test: Oral activity against experimental cecal E. Histolytica infections in rats; type: in vivo, male Royal Hart rats; details: for A.D.I. (average degree of infection): scale 0 to 4, controls averaged 2.2
Description: Table VII and Table VIII set forth in vivo test results which illustrate the antiprotozoal activity of Antibiotic G-418. The host for the tests were recently weaned male Royal Hart rats (3-4 weeks old) weighing about 50-70 g. The test procedure is a modification of one described by R. J. Schnitzer on pages 355-443 in Experimental Chemotherapy, Vol. 1, Academic Press, New York (1963).
*A.D.I. -- defined as the average degree of infection based upon gross
observations of pathological changes in the cecum and microscopic
observations of the number of amoebae found. These observations are
recorded on a scale of from zero to four, zero representing a
substantially normal cecum. Untreated but infected controls range from
about two to four. In the data set forth the controls averaged 2.2.

[1] = system: Bacillus subtilis A.T.C.C. 6633; test: standard disc plate microbiological assay; type: cell-based; details: against the standard antibiotic base (1000 mcg/mg)
Description: The assay is a standard disc plate assay using Difco Antibiotic Medium No. 5 and Bacillus subtilis A.T.C.C. 6633 as the test organism. The physical conditions of the test are substantially those described for neomycin (Grove and Randall), Assay Methods of Antibiotics published by Medical Encyclopedia Incorporated (1955). The assay is run against a standard preparation of Antibiotic G-418 having a defined potency of 1000 mcg/mg. […] The standard antibiotic sulfate salt assays about 750 mcg/mg. against the standard antibiotic base.

Structure (SMILES) | Parasitological Cure Negative/Total (E. Histolytica; oral 6.5 mg/kg/day, 1 day) | A.D.I. (average degree of infection) (E. Histolytica; oral 6.5 mg/kg/day, 1 day) | Parasitological Cure Negative/Total (E. Histolytica; oral 6.5 mg/kg/day, 3 days) | A.D.I. (average degree of infection) (E. Histolytica; oral 6.5 mg/kg/day, 3 days) | Parasitological Cure Negative/Total (E. Histolytica; oral 6.5 mg/kg/day, 6 days) | A.D.I. (average degree of infection) (E. Histolytica; oral 6.5 mg/kg/day, 6 days) | Parasitological Cure Negative/Total (E. Histolytica; oral 25 mg/kg/day, 6 days) | A.D.I. (average degree of infection) (E. Histolytica; oral 25 mg/kg/day, 6 days) | other results
Cc1ncc([N+](=O)[O-])n1CCO [Flagyl] | 0/4 | 1.5 | 0/3 | 1.7 | 1/4 | 0.8 | 1/5 | 0.8 | Parasitological Cure Negative/Total (E. Histolytica; oral 13 mg/kg/day, 6 days): 2/6; A.D.I. (average degree of infection) (E. Histolytica; oral 13 mg/kg/day, 6 days): 0.8
NC[C@@H]1O[C@H](O[C@H]2[C@@H](O)[C@H](O[C@@H]3[C@@H](O)[C@H](N)C[C@H](N)[C@H]3O[C@H]3O[C@H](CO)[C@@H](O)[C@H](O)[C@H]3N)O[C@@H]2CO)[C@H](N)[C@@H](O)[C@@H]1O [Paromomycin] | 0/4 | 1.0 | 1/5 | 1.0 | 2/4 | 1.3 | 6/7 | 0 | Parasitological Cure Negative/Total (E. Histolytica; oral 3.5 mg/kg/day, 3 days): 1/7; A.D.I. (average degree of infection) (E. Histolytica; oral 3.5 mg/kg/day, 3 days): 1.9; Parasitological Cure Negative/Total (E. Histolytica; oral 3.5 mg/kg/day, 6 days): 1/6; A.D.I. (average degree of infection) (E. Histolytica; oral 3.5 mg/kg/day, 6 days): 1.5; Parasitological Cure Negative/Total (E. Histolytica; oral 10 mg/kg/day, 1 day): 0/7; A.D.I. (average degree of infection) (E. Histolytica; oral 10 mg/kg/day, 1 day): 2.1; Parasitological Cure Negative/Total (E. Histolytica; oral 10 mg/kg/day, 3 days): 2/6; A.D.I. (average degree of infection) (E. Histolytica; oral 10 mg/kg/day, 3 days): 1.0; Parasitological Cure Negative/Total (E. Histolytica; oral 12 mg/kg/day, 6 days): 4/8; A.D.I. (average degree of infection) (E. Histolytica; oral 12 mg/kg/day, 6 days): 0.8
CN[C@@H]1[C@@H](O)[C@@H](O[C@@H]2[C@@H](O)[C@H](O[C@H]3O[C@H]([C@@H](C)O)[C@@H](O)[C@H](O)[C@H]3N)[C@@H](N)C[C@H]2N)OC[C@]1(C)O [standard antibiotic sulfate salt] | – | – | – | – | – | – | – | – | potency of standard antibiotic sulfate salt [1]: about 750 mcg/mg
